Data from US6469010B1, “Medicament for the alleviation or treatment of symptom derived from the ischemic disease and compound useful thereof” (Suntory Limited, priority 1995, dated 2002).

What was measured:
[1] = test system: Na+ channel; assay: Veratridine-induced sodium channel activity inhibiting action (membrane potential of synaptosomes, Rhodamine 6G); type: biochemical, Wistar rats; settings: 0.1 μM of compound; rat brain synaptosomes, veratridine-induced depolarization
Description: Veratridine-induced Sodium Channel Activity Inhibiting Action
The membrane potential of the synaptosomes prepared from the brain membrane of Wistar rats (male, 10 to 12 weeks old) was measured by the method of Aiuchi et al. [T. Aiuchi et al: Biochimi. Biophys. Acta.

[2] = test system: DBA/2N mice; assay: Audiogenic seizure suppressing action; type: in vivo; settings: Mus musculus, ip, 20 min; compound 10 mg/kg, i.p.; audio stimulus after 20 minutes; suppression of average seizure score; read-out: Antiseizure action (suppression rate %)
Description: Audiogenic Seizure Suppressing Action
The audiogenic seizure suppressing action of the compounds was evaluated by the method of Sarro et al. [G. B. De Sarro et al.; Br. J. Pharmacol., 93, 247 (1988)]. That is, DBA/2N mice (male, 3 weeks) were administered with the compound dissolved in 10% 2-hydroxypropyl-β-cyclodextrin intraperitoneally. After 20 minutes, a supersonic washer was used to apply audio stimulus of at least 90 dB for one minute. The wild running (WR), clonic seizures (clonus), tonic seizures (tonus), and respiratory arrest (RA) were evaluated. The seizure suppressing action was evaluated from the rate or suppression of the average value of the seizure score found from 0=no response, 1=WR, 2=clonus, 3=tonus, and 4=RA.

[3] = test system: T-type Ca2+ channel; assay: T-type calcium channel inhibiting action (whole-cell patch clamp, hippocampal CA1 pyramidal cells); type: cell-based, Wistar rats; settings: rat hippocampal CA1 pyramidal cells; suppression of peak current after one minute of application
Description: T-Type Calcium Channel Inhibiting Action
The hippocampal CA1 pyramidal cells were isolated from Wistar rats (female, 1 week old) in accordance with the method of Takahashi et al. K. Takahashi et al.; J Pharmacol. Exp; Ther., 256, 169 (1991)] and the T-type calcium current under conditions of a fixed membrane potential was measured using the whole-cell configuration of the pach clamp technique. The effects of the compounds were evaluated from the rate of suppression of the peak current after one minute of application using the concentration clamp method.

[4] = Acute toxicity test; settings: male, mouse, in vivo, iv, ddY mice, death rate up to 24 hours after administration
Description: Medicine was intravenously administered to ddY mice (male, 6 weeks old). The 50 percent lethal dosage LD50 of the acute toxicity was calculated by an ordinary method from the death rate up to 24 hours after administration.

[5] = target: T1, Dopamine D2 receptor (Rattus norvegicus, UniProt P61169); assay: Dopamine D2 receptor blocking action ([3H]raclopride binding, striatum membrane fraction); design: species or system Wister male rats; settings: 1.0 nM [3H]raclopride, 25° C., one hour
T1 construct: membrane fraction prepared from the striatum of Wister male rats; from tissue; host or cells: rat striatum membrane fraction
T1 sequence (P61169 whole entry): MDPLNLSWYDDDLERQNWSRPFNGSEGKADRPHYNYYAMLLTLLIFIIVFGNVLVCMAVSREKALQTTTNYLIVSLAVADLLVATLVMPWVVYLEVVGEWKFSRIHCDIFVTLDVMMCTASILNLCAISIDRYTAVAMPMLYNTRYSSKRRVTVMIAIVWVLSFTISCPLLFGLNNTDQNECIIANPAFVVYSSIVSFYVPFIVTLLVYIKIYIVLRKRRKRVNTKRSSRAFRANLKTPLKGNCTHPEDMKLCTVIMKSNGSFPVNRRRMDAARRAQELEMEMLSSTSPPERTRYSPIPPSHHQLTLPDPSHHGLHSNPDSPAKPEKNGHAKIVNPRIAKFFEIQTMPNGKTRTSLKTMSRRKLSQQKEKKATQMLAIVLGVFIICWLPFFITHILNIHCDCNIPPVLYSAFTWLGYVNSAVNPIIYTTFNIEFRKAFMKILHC
Description: Dopamine D2 Receptor Blocking Action
57 μl of the membrane fraction prepared from the striatum of Wister male rats,(6 weeks old) was incubated in a buffer at 25° C. for one hour along with the compound and 1.0 nM [^3H) raclopride. A GF/C glass filter (0.1% polyethylene imine treatment) was used for separation of the B and F, then the radioactivity was measured by a beta plate and the effect of the compound was evaluated.

SMILES | Antiveratridine action (inhibiting rate %) [1] [%] | inhibition in vivo at 10 mg/kg [2] [%] | IC50 [3] [nM] | LD50 at 24 h [4] [mg/kg] | IC50 [5] [nM]
c1ccc(Oc2ccc(C3CCN(C[C@@H]4C[C@H]4c4ccccc4)CC3)cc2)cc1 (relative stereo) [Compound 26, 4-(phenoxyphenyl)-1-[trans-(2-phenyl)cyclopropylmethyl]piperidine] | 36.5 | 78 | 2800 | 32.9 | 3370
C(=C\c1ccccc1)/CN1CCC(c2ccc(Oc3ccccc3)cc2)CC1 [Compound 21, (E)-4-(4-phenoxyphenyl)-1-(3-phenyl-2-propenyl)piperidine] | 20.3 | 77.3 | 800 | 40.9 | 2680
Fc1ccc(Cc2ccc(C3CCN(C/C=C/c4ccccc4)CC3)cc2)cc1 [Compound 32, (E)-4-[4-(4-fluorophenyl)methylphenyl]-1-(3-phenyl-2-propenyl)piperidine] | 33.3 | 94 | 600 | 32.9 | 3360
Fc1ccc(Cc2ccc(N3CCN(C/C=C/c4ccccc4)CC3)cc2)cc1 [Compound 47] | 22.9 | 64.1 | 2700 | 43.2 | 3960
COc1cc(/C=C/CN2CCN(c3ccc(Cc4ccc(F)cc4)cc3)CC2)ccc1O [Compound 49] | 17.3 | 60 | – | – | 987
Fc1ccc(/C=C/CN2CCN(c3ccc(Cc4ccc(F)cc4)cc3)CC2)cc1 [Compound 50, (E)-1-[4-(4-fluorophenyl)methylphenyl]-4-[3-(4-fluorophenyl)-2-propenyl]-piperazine] | – | 72 | 4200 | – | –
c1ccc(Oc2ccc(C3CCN(CC4(c5ccccc5)OCCO4)CC3)cc2)cc1 [Compound 73, 2-[4-(4-phenoxyphenyl)piperidin-1-yl]methyl-2-phenyl-1,3-dioxolane] | 16.1 | 52.2 | 4600 | – | –
COc1ccc(Cc2ccc(C3CCN(C/C=C/c4ccccc4)CC3)cc2)cc1 [Compound 75, 4-[4-(4-methoxyphenyl)methylphenyl]-(E)-1-(3-phenyl-2-propenyl)piperidine] | 55.2 | 99 | 1400 | – | –
OC(CN1CCC(c2ccc(Cc3ccc(F)cc3)cc2)CC1)c1ccccc1 (stereo not shown) [Compound 79, 4-[4-(4-fluorophenyl)methylphenyl]-1-(2-hydroxy-2-phenyl)ethylpiperidine] | 37.1 | 79.8 | 3100 | – | –
OC(COc1ccccc1)CN1CCC(c2ccc(Oc3ccccc3)cc2)CC1 (stereo not shown) [Compound 80, 1-(2-hydroxy-3-phenoxy)propyl-4-(4-phenoxyphenyl)piperidine] | 49.7 | 66.3 | 1900 | – | –
